From BindingDB's records for doi:10.1021/jm030871u (2003)
Residues, ends and D or L forms follow the SMILES beside them. *: point of attachment. X1 = CC(C)CCC[C@@H](C)[C@H]1CCC2C3CC=C4C[C@H](SC[C@@H]5CCN6CC[C@@H](CSCC(=O)*)NC6=N5)CC[C@]4(C)C3CC[C@@]21C; X2 = CC(C)(C)[Si](OCC1CCN2CCC(CSCC(=O)*)NC2=N1)(c1ccccc1)c1ccccc1; OBn = c1ccc(CO*)cc1; Bn = c1ccc(C*)cc1

Molecular target: Human immunodeficiency virus type 1 protease (Human immunodeficiency virus 1, UniProt Q72874)
Assay: Competitive inhibition against HIV-1 Protease

Structure (SMILES) | Ki [µM]
CC(C)CCC[C@@H](C)[C@H]1CCC2C3CC=C4C[C@H](SC[C@@H]5CCN6CC[C@@H](CSCC(=O)NCC(=O)N[C@@H](C)C(=O)N[C@H](C(=O)N[C@@H](CC(C)C)C(=O)N[C@@H](CC(N)=O)C(=O)N[C@@H](Cc7ccccc7)C(=O)OCc7ccccc7)[C@@H](C)OCc7ccccc7)NC6=N5)CC[C@]4(C)C3CC[C@@]21C (some centres not stated) (X1-GAT(Bn)LNF-OBn) | 0.4
CC[C@H](C)[C@H](NC(=O)CNC(=O)CSCC1CCN2CCC(CO[Si](c3ccccc3)(c3ccccc3)C(C)(C)C)N=C2N1)C(=O)N[C@@H](CO)C(=O)N[C@@H](Cc1ccc(O)cc1)C(=O)N[C@@H](CC(N)=O)C(=O)N[C@@H](CC(C)C)C(=O)OC (some centres not stated) [Bicyclic Guanidinium Subunit] (X2-GISYNL-OMe) | 6
